Data as given in PubChem BioAssay (NCI).
Several values for one entry are separate records, joined by “and”; a condition that tells them apart may be missing. Identical values can stand only once.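 Five concentrations, 48 hours, 96-well plates. Here, GI50 denotes the concentration required for 50% inhibition of growth. The concentration for full growth arrest is given as TGI.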

Tests used:
Assay in all cases: NCI-60 cell line screen, 48 h
UO-31 renal = system: UO-31 renal
SF-539 CNS = system: SF-539 CNS
SN12C renal = system: SN12C renal
NCI-H460 lung = system: NCI-H460 lung
U251 CNS = system: U251 CNS
LOX IMVI melanoma = system: LOX IMVI melanoma
SK-MEL-5 melanoma = system: SK-MEL-5 melanoma
HCC-2998 colon = system: HCC-2998 colon
HOP-92 NSCLC = system: HOP-92 NSCLC
HCT-15 colon = system: HCT-15 colon

SMILES	TGI (UO-31 renal)	TGI (SF-539 CNS)	TGI (SN12C renal)	TGI (NCI-H460 lung)	TGI (U251 CNS)	TGI (LOX IMVI melanoma)	TGI (SK-MEL-5 melanoma)	TGI (HCC-2998 colon)	TGI (HOP-92 NSCLC)	TGI (HCT-15 colon)	GI50 (UO-31 renal)	GI50 (SF-539 CNS)	GI50 (SN12C renal)	GI50 (NCI-H460 lung)	GI50 (U251 CNS)	GI50 (LOX IMVI melanoma)	GI50 (SK-MEL-5 melanoma)	GI50 (HCC-2998 colon)	GI50 (HOP-92 NSCLC)	GI50 (HCT-15 colon)
COc1cc([C@H]2OC[C@H]3[C@@H]2CO[C@@H]3c2cc(OC)c3c(c2)OCO3)cc(OC)c1OC	> 100 µM	> 100 µM	> 100 µM	> 100 µM	> 100 µM	> 100 µM	48.7 µM	> 100 µM	> 100 µM	> 100 µM	–	–	–	–	–	–	–	–	–	–
CC1(C)[C@@H](OC(N)=O)[C@H]2O[C@H]2[C@]2(CO)[C@H]3CC[C@]4(C)[C@@H](c5ccc(=O)oc5)[C@@H](Cl)C[C@]4(O)C3=CC[C@@H]12	0.0228 µM	0.00951 µM	0.0325 µM	0.00997 µM	0.0297 µM	0.0157 µM	0.0195 µM	0.107 µM	0.0921 µM	0.0304 µM	0.00645 µM	0.00453 µM	0.00766 µM	0.00468 µM	0.00858 µM	0.00595 µM	0.00681 µM	0.0151 µM	0.0127 µM	0.00798 µM
CCOC(=O)NC(=O)c1cn(CCN2CCN(c3ncnc4nc[nH]c34)CC2)c(=O)[nH]c1=O	> 100 µM	> 100 µM	> 100 µM	> 100 µM	> 100 µM	> 100 µM	> 100 µM	> 100 µM	> 100 µM	> 100 µM	–	–	–	–	–	–	–	–	–	–
O=C1c2ccccc2-c2c1c1ccccc1c(=O)n2CCN1CCOCC1	> 100 µM	> 100 µM	> 100 µM	> 100 µM	> 100 µM	> 100 µM	> 100 µM	> 100 µM	> 100 µM	> 100 µM	64.4 µM	84.9 µM	94.1 µM	55.4 µM	52.4 µM	40.5 µM	49 µM	42.5 µM	> 100 µM	78.5 µM
COc1ccc(OC)c(-c2c(C#N)c(N)nc(N3CCOCC3)c2C#N)c1	> 100 µM	> 100 µM	> 100 µM	> 100 µM	> 100 µM	> 100 µM	> 100 µM	> 100 µM	> 100 µM	> 100 µM	46 µM	> 100 µM	73 µM	> 100 µM	> 100 µM	> 100 µM	> 100 µM	72.7 µM	82.5 µM	> 100 µM
CCOc1ccccc1N=Nc1c(C)[nH]n(-c2nc(-c3ccccc3)cs2)c1=O	> 100 µM	> 100 µM	> 100 µM	> 100 µM	> 100 µM	> 100 µM	> 100 µM	> 100 µM	> 96.8 µM	> 100 µM	> 65.1 µM	27.5 µM	> 94.8 µM	37.5 µM	36.2 µM	> 100 µM	41.6 µM	> 100 µM	21.9 µM	> 100 µM
Cc1cc(Cl)ccc1NC(=O)CC/C(CC(=O)C(C)C)=N\NC(=O)C[n+]1ccccc1	> 100 µM	> 100 µM	> 100 µM	> 100 µM	> 100 µM	> 100 µM	> 100 µM	> 100 µM	> 100 µM	> 100 µM	–	–	–	–	–	–	–	–	–	–
O=C(NC[C@H](O)CO)c1ccncc1Nc1ccc(I)cc1F	> 10 µM and 20.3 µM	> 100 µM	> 100 µM	> 100 µM	> 100 µM	> 10 µM and 22.4 µM	> 100 µM	> 8.4 µM and 9.22 µM	1.2 µM and 3.61 µM	> 100 µM	0.2 µM and 0.988 µM	> 10 µM and 23.2 µM	> 7.13 µM and 7.74 µM	> 10 µM and 11.8 µM	1.84 µM and 4.92 µM	–	7.7 µM	0.00358 µM and 0.019 µM	0.0509 µM and 0.0379 µM	3.53 µM and 5.62 µM
O=[N+]([O-])c1cccc([As]=[As]c2cccc([N+](=O)[O-])c2)c1 (stereo unspecified)	0.255 µM	0.201 µM	0.239 µM	0.5 µM	0.22 µM	0.146 µM	0.324 µM	0.275 µM	0.173 µM	0.174 µM	0.119 µM	0.0737 µM	0.11 µM	0.225 µM	0.103 µM	0.0452 µM	0.162 µM	0.13 µM	0.0433 µM	0.0437 µM
O=C(Nc1ccc(Cl)cc1)Nc1ccc(Nc2nncc3ccccc23)cc1	15.8 µM	11.5 µM	37.2 µM	11.9 µM	10.3 µM	14.6 µM	6.82 µM	19.8 µM	7.26 µM	11.8 µM	1.9 µM	2.88 µM	4.58 µM	2.91 µM	2.86 µM	0.825 µM	2.31 µM	3.26 µM	2.55 µM	1.59 µM
[N-]=[N+]=NC(CI)c1cn([C@H]2C[C@H](O)[C@@H](CO)O2)c(=O)[nH]c1=O (stereo partly specified)	> 100 µM	> 100 µM	> 100 µM	> 100 µM	> 100 µM	> 100 µM	> 100 µM	> 100 µM	> 100 µM	> 100 µM	–	–	–	–	–	–	–	–	–	–
CC(=O)C1C(=O)C(=O)N(c2ccccc2C(C)C)C1=O (stereo unspecified)	> 100 µM	> 100 µM	> 100 µM	> 100 µM	> 100 µM	> 100 µM	> 100 µM	> 100 µM	> 100 µM	> 100 µM	–	–	–	–	–	–	–	–	–	–
COc1ccc(/C=C\c2cc(OC)c(OC)c(OC)c2)cc1OC	40.4 µM and 50.3 µM	0.294 µM and 0.283 µM	–	40.4 µM and 16.7 µM	–	40.4 µM and 17.7 µM	40.4 µM and 16.8 µM	0.579 µM and 0.372 µM	40.4 µM and 8.55 µM	40.4 µM and > 100 µM	0.805 µM	0.0605 µM	0.94 µM	0.181 µM	0.0975 µM	0.0829 µM	0.0514 µM	–	0.0473 µM	0.0595 µM
COc1c(Cl)cc(NC(=S)C#N)cc1Cl	56.1 µM	59 µM	53.5 µM	68.2 µM	43.6 µM	38.8 µM	32.9 µM	32.6 µM	48.8 µM	46.8 µM	–	–	–	–	–	–	–	–	–	–
Nc1ncnc2c1nnn2C1CCC(CP(=O)(O)O)C1 (stereo unspecified)	> 100 µM	> 100 µM	> 100 µM	> 100 µM	> 100 µM	> 100 µM	> 100 µM	> 100 µM	> 100 µM	> 100 µM	–	–	–	–	–	–	–	–	–	–
